Test results taken from patent US20210010089A1, “TUMOR MINIMAL RESIDUAL DISEASE STRATIFICATION” (VIB VZW, priority 2018, published 2021).

How the values were obtained:
MM052 melanoma cells = assay: Colony assay and Cell Titer Glo assay in short culture melanoma line
Protocol: Cells were grown to near confluency on 12well plates and treated with the indicated drug combinations for the indicated time period.
2500 cells were plated onto a 96well plate and treated with the indicated drug combinations for the indicated time period. Cell Titer Glo assay was performed according to the manufacturer's instruction (Promega) and luminescence was measured on a VictorX3 (Perkin Elmer).

[1] = system: GFRA2-positive MEL006 cells; assay: FACS of GFRA2-positive cells (NDTCs) in MEL006 cultures
Protocol: Cells were resuspended in FACS sorting buffer (culture medium supplied with 1% EDTA 100 mM).

RAR = details: pan-RXR agonist; cited from earlier work
[2] = system: NRAS-mutant cells (MM165); assay: GFRA2 expression (RT-qPCR) in short-term melanoma culture; details: NRAS-mutant culture exposed to both trametinib and bexarotene
wild-type cells (MM163) = assay: as above; format: cell-based, human; details: triple wild-type culture exposed to both trametinib and bexarotene
Excerpt: C) wild-type cells (MM163).

[3] = system: MRD subpopulation gene signatures; assay: Analysis of available RNASeq data of melanoma patients on immunotherapy (Riaz et al. 2017); parameters: species or system human; details: patient subgroups SD+PD versus CR+PR; results not shown
Excerpt: Although the therapy selecting for these 4 MRD-stage subpopulations as applied in the Examples herein relies on combined inhibition of BRAF and MEK kinases, it can be envisaged that other therapeutic modalities also give rise to the emergence of the same or some of these 4 MRD-stage subpopulations. […] Likewise, targeted therapies of cancers other than melanoma can lead to a MRD phase during which one or more of the MRD subpopulations as identified herein for melanoma are present. Such targeted therapies include e.g. anti-VEGF (bevacizumab), anti-EGFR (cetuximab, erlotinib), mTOR inhibition (everolimus), Tyr-kinase inhibitor/anti-EGFR (gefitinib), Tyr-kinase inhibition/BCR-ABL inhibition (imatinib), anti-HER2/anti-EGFR (lapatinib), and Tyr-kinase inhibition (sorafenib, sunitinib). On the one hand, as described above, different therapies targeting melanoma can be expected to induce all or part of the minimal residual disease tumor subpopulations as described herein. On the other hand, it can be envisaged that inhibition of the MAPK-pathway (with BRAF and/or MEK inhibitors) is inducing in cancers or tumors different from melanoma one or more minimal residual disease tumor subpopulations as described herein for melanoma.

Compound: CN1c2ccc([N+](=O)[O-])cc2N=C(c2ccc(C(=O)O)cc2)c2cc3c(cc21)C(C)(C)CCC3(C)C [HX531]
- effect on sensitivity of MM52 cells to trametinib (MM052 melanoma cells; HX531 2 uM, trametinib 2 nM, colony assay 7 days, Cell Titer Glo 6 days): sensitized these cells to trametinib
- drug-dependent induction of GFRA2-positive cells ([1]; in presence of IC50 concentrations of the BRAF and MEK-inhibitors): completely inhibited emergence of drug-dependent induction of GFRA2-positive cells

Compound: CN(c1ncccc1CNc1nc(Nc2ccc3c(c2)CC(=O)N3)ncc1C(F)(F)F)S(C)(=O)=O [PF-562271]
- drug-dependent emergence of the GFRA2-high cell population ([1]; FAK inhibitor added to DT-treated MEL006 cells): diminished the drug-dependent emergence of the GFRA2-high cell population in a dose-dependent manner

Compound: CC1(C)CCC(C)(C)c2cc(C3(c4ccc(C(=O)O)cc4)OCCO3)ccc21 [SR 11237]
- RAR activity (RAR): devoid of any RAR activity

Compound: C=C(c1ccc(C(=O)O)cc1)c1cc2c(cc1C)C(C)(C)CCC2(C)C [bexarotene]
- effect on sensitivity to a combination of trametinib/FAK-inhibitors (MM052 melanoma cells; MM52 cells): increased the sensitivity
- long-term growth inhibition (MM052 melanoma cells; MM52 culture, compound alone): did not induce measurable long-term growth inhibition
- cells in which cell death occurred (MM052 melanoma cells; bexarotene with trametinib/FAK-inhibitors, after 3 days of treatment (data not shown)): ~100%
- effect on sensitivity of MM52 cells to trametinib (MM052 melanoma cells; concentrations as low as 10 nM): significantly decreased the sensitivity
- GFRA2 expression levels [2]: increase
- GFRA2 expression levels (wild-type cells (MM163)): increase

Compound: nivolumab: PD-1 inhibitor
- induction of MRD subpopulations (trend) [3]: induce at least the pigmented state and MITFmedium-hypometabolic state MRD subpopulations
